Among the test systems are NCI-H522 lung; SN12K1 renal; HOP-18 NSCLC; HCT-15 colon; DMS 273 small cell lung; M14 melanoma; HS 578T breast; MDA-MB-231 breast; MDA-MB-435.
Holding throughout (assay): inhibition of tumour cell growth, NCI panel, 48 h

The record followed here is PubChem BioAssay (NCI).

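Interpolation was linear, between the two tested concentrations surrounding the appropriate level; five concentrations were tested over 48 hours in 96-well plates. The concentration for 50% growth inhibition is given as GI50. TGI: total growth inhibition.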

On to `O=[Se]([O-])c1ccccc1.O=[Se]([O-])c1ccccc1.[OH3+].[OH3+].[Pt+2]`, for which the GI50 with NCI-H522 lung was 2.51 µM; in the assay on SN12K1 renal, 4.5 µM; with HOP-18 NSCLC it was 15.1 µM; in the assay on HCT-15 colon it was 6.02 µM; in the assay with DMS 273 small cell lung, 14.6 µM. Moreover, the TGI is 13.4 µM in the assay on NCI-H522 lung; 15 µM with SN12K1 renal; 60.6 µM in the assay on HOP-18 NSCLC; 28.6 µM in the assay on HCT-15 colon; 36 µM in the assay on DMS 273 small cell lung.

For the compound `CSC1=Nc2ccccc2N(C)c2c1c(-c1ccccc1)nn2C`, the TGI in the assay with M14 melanoma, in the assay with NCI-H522 lung, in the assay with HS 578T breast, in the assay on MDA-MB-231 breast, with HCT-15 colon and with MDA-MB-435 was above 100 µM throughout.

Take `N#Cc1c(NC(=S)NC(=O)c2ccccc2)nc2c(c1-c1ccccc1)CCC2`: the TGI in the assay with M14 melanoma, in the assay on HS 578T breast, in the assay with MDA-MB-231 breast, in the assay on HCT-15 colon and with MDA-MB-435 was above 100 µM each time.

In the case of `COC1OC(=O)[C@H]2O[N+]([O-])=C(C)[C@@H]12` (stereo partly drawn), the TGI in the assay with NCI-H522 lung, with SN12K1 renal, in the assay on HOP-18 NSCLC and with HCT-15 colon was above 100 µM in each case.

On to `C=CC(=O)Nc1cccc(-c2nc(SC)nc(Nc3ccccc3OC)c2C#N)c1`, for which the GI50 with M14 melanoma was 2.22 µM; in the assay with NCI-H522 lung it was 2.04 µM; with HS 578T breast, 2.34 µM; in the assay with MDA-MB-231 breast it was 1.83 µM; in the assay with MDA-MB-435, 1.93 µM. Also, the TGI with M14 melanoma is 5.64 µM; with NCI-H522 lung it was 6.53 µM; with HS 578T breast, 6.61 µM; in the assay with MDA-MB-231 breast, 4.33 µM; in the assay on MDA-MB-435 it was 4.48 µM.

As for `Nc1n[nH]c(=O)[nH]1`, the TGI in the assay on NCI-H522 lung, with SN12K1 renal, in the assay on HCT-15 colon and with DMS 273 small cell lung was above 100 µM throughout.

Consider `O=C1CC(=O)N(c2ccccc2)N1/C(=C/c1ccccc1)c1ccccc1`, for which the TGI in the assay with M14 melanoma was 46.6 µM; with HS 578T breast it was 45.4 µM; in the assay on MDA-MB-231 breast, 30 µM; in the assay with MDA-MB-435, 36.5 µM.
